Data from patent publication US4386103A, “Dichloroamino acid derivatives useful as potent germicidal and fungicidal agents” (Merck & Co., Inc., priority 1981, dated 1983).

Columns and labels:
Bacillus subtilis = assay: Contact germicidal screen, Bacillus subtilis ATCC No. 60511; type: cell-based
Protocol: The organisms used in the contact germicidal screen are all maintained as stock cultures on nutrient agar […] 4° C. They are transferred and biochemically diagnosed monthly. The five organisms used are: The media used are: […] Overnight cultures of the test organisms are grown in tryptose phosphate broth. After 15-16 hours, the cultures are centrifuged at […] for 15 minutes, and the supernatant replaced with fresh warm (37° C.) media. After two hours of incubation, the absorbance of the culture at 650 nm is determined and diluted with nutrient broth to 1×10^7 colony forming units per ml (using a previous determined standard curve: colony forming units/ml vs. absorbance at 650). The diluted cultures are maintained at 4°-8° C. throughout the screen. The compounds are weighed into sterile 100 ml volumetric flasks, and immediately before screening dissolved in one of the following buffers: 0.1 M NaOAc pH 4.6 or 0.1 M NaH2 PO4 pH 7.0. If solubility poses a problem, 10-30% methanol is used to effect solution. Two denaturing agents are also tested: […] Horse Serum restored with 100 ml distilled water and 10% Trition×100. When used, 2.5 ml of the denaturing agent is mixed with 2.5 ml of double strength test solution thirty minutes before the bacterial suspension is added. The screen is initiated when 0.2 ml of the bacterial suspension is added to 5.0 ml of the test solution contained in a sterile 25 ml glass stoppered flask. At intervals of 0.5, 2.5, 5.0, 10.0 and 15.0 minutes, a loopful of the inoculated test solution is subcultured into 5 ml of sterile nutrient broth and mixed with a vortex, the high dilution serving to stop the action of the compound. All of the subculture tubes are incubated at 37° C. and checked for signs of growth by turbidity at 1, 3, 5 and 7 days. The earliest subculture time at which no growth is present is considered the endpoint and is recorded as the sterilization time. An aliquot of 0.2 ml of the diluted culture is transferred to 5 ml of buffer to simulate 0.2 ml in 5 ml of test solution. (a) Purity: A loopful of the inoculated buffer is streaked onto nutrient agar to check colony morphology and lack of contaminants. (b) Viability: A loopful of the inoculated buffer is subcultured to 5 ml of nutrient broth as in the screen and incubated at 37° C. for 24 hours. (c) Dilution of the Test Solution: A loopful of the test solution is transferred to a 5 ml tube of nutrient broth, and a loopful of the inoculated buffer is transferred to the same tube of broth. […] (d) Purity of Organisms in the Test Solution: After the 15 minute subculture, a loopful of the inoculated test solution is streaked onto nutrient agar to insure that contamination has not occurred during the screen. (e) lack of Bactericidal Activity of Buffers and Other Solvents: Before a buffer or other solvent is used as a diluent, it is screened against the five organisms to insure that the buffer or solvent has no antibacterial activity itself.

Rhizopus oryzae = assay: Contact fungicidal screen, Rhizopus oryzae; type: cell-based; settings: 0.1M NaOAc pH 4.6
Protocol: The organisms used in the Contact Fungicidal Screen are a dermatophyte, trychophyton mentagrophytes, frequently associated with athlete's foot; a yeast, Candida albican, causative agent of thrush and vaginitis; a phycomycete, Rhizopus oryzae, commonly known as black bread mold; an ascomycete, Aspergillus fumagatis, found in chicken droppings and causing lung infections; and another dermatophyte, Microsporum canis, which causes ringworm. These organisms are maintained as stock cultures at 4° C. on agar slants of the following composition: dextrose 2%, Neopeptone (Difco) 1%, agar 2%. Fluid medium of the same nutrient composition (without agar) was used to test the viability of the organisms after exposure to the fungicide. This medium is also known as Sabouraud's medium.
[…]. The mycelial mat is removed from the surface of the agar using a sterile spatula. It is transferred to a heat sterilized glass tissue grinder and macerated with 25 ml of sterile physiological saline. The suspension is then filtered through sterile glass wool. The density of the sporangia spore suspension is determined by counting in a hemacytometer. The suspension is stored at 4° C. until it was used, at which time it was diluted with sterile physiological saline to a density of 5×10^6 spores per ml.
The compounds are weighed into heat sterilized 100 ml volumetric flasks and immediately before screening dissolved in 0.1 M NaOAc pH 4.6 buffer (test solutions).
The Aspergillus, Candida, Microsporum and Rhizopus species are screened in a slightly different manner. Basically, the procedure for the Contact Germicidal Efficiency Screen is utilized. After the test solutions are made up, 5 ml aliquots are pipetted into heat sterilized 25 ml glass stoppered erlenmeyer flasks. The screen is initiated when 0.5 ml of the 5×10^6 cell (spore) per ml suspension is added to the flask containing 5 ml of the test solution. At intervals of 0.5, 2.5, 5.0, 10.0 and 15.0 minutes, a 4 mm loopful of the inoculated test solution is subcultured into 7 mL of sterile fluid Sabouraud's medium and mixed on a vortex, the high dilution serving to stop the action of the compound. The subculture tubes are incubated at 25°-30° C. for ten days with daily observation for mycelial growth. The earliest subculture time at which no growth is present is considered the endpoint and is recorded as the sterilization time.
To insure the viability of the culture, a 0.5 ml aliquot of the 5×10^6 cells (spores) per ml suspension is transferred to 5 ml of the pH 4.6 buffer. A loopful of the inoculated buffer is then subcultured to 7 ml of fluid Sabouraud's medium and incubated at 25°-30° C. for ten days. To insure that the dilution of the test solution into the subculture medium does stop the action, a loopful of the test solution and a loopful of the inoculated buffer are transferred into the same subculture tube. This tube is also incubated at 25°-30° C. for ten days.

[1] = 10.0+ PPM, 0.1M NaOAc pH 4.6, screened simultaneously with four other compounds
[2] = 300 PPM with 50% Horse Serum, 0.1M NaOAc pH 4.6
[3] = 300 PPM with 50% Triton X100, 0.1M NaOAc pH 4.6
[4] = 1000 PPM with 50% Horse Serum, 0.1M NaOAc pH 4.6
[5] = 308.0 PPM, Triton X100 (10% solution):pH 4.6 buffer 1:1

SMILES: CC(C)(COC(=O)CCCC(=O)O)N(Cl)Cl [(V), 2-dichloramino-2-methylpropyl-hemiglutarate]
- Sterilization Time (Bacillus subtilis; [1]): 2.5 min
- Sterilization Time (Bacillus subtilis; 10.0 PPM, 0.1M NaH2PO4 pH 7.0): 15 min
- Sterilization Time (summary) (Bacillus subtilis; 10 PPM, 0.1M NaOAc pH 4.6): 2.5 min
- Sterilization Time (Bacillus subtilis; 10.0 PPM, 0.1M NaOAc pH 4.6): 5.0 min
- Sterilization Time (Bacillus subtilis; 99.1 PPM, 0.1M NaOAc pH 4.6): 2.5 min
- Sterilization Time (summary) (Bacillus subtilis; 100 PPM, 0.1M NaOAc pH 4.6): 2.5 min
- Sterilization Time (Bacillus subtilis; 106.7 PPM, 0.1M NaH2PO4 pH 7.0): 10.0 min
- Sterilization Time (Bacillus subtilis; 291.4 PPM, Triton X100 (10% solution):pH 4.6 buffer 1:1): 0.5 min
- Sterilization Time (Bacillus subtilis; 291.4 PPM, horse serum:pH 4.6 buffer 1:1): 5.0 min
- Sterilization Time (summary) (Bacillus subtilis; [2]): 5.0 min
- Sterilization Time (summary) (Bacillus subtilis; [3]): 0.5 min
- Sterilization Time (Bacillus subtilis; 911.8 PPM, 0.1M NaOAc pH 4.6): 0.5 min
- Sterilization Time (summary) (Bacillus subtilis; [4]): 0.5 min
- Sterilization Time (summary) (Bacillus subtilis; 1000 PPM, 0.1M NaOAc pH 4.6): 0.5 min
- Sterilization Time (Bacillus subtilis; 1024.4 PPM, 0.1M NaH2PO4 pH 7.0): 2.5 min
- Sterilization Time (Bacillus subtilis; 1042.0 PPM, horse serum:pH 4.6 buffer 1:1): 0.5 min
- Sterilization Time (Rhizopus oryzae; 10 PPM): 15 min
- Sterilization Time (Rhizopus oryzae; 100 PPM): 15 min
- Sterilization Time (Rhizopus oryzae; 1000 PPM): 15 min

SMILES: CC(C)(COC(=O)CCC(=O)O)N(Cl)Cl [(IV), 2-Dichloroamino-2-methylpropylhemisuccinate]
- Sterilization Time (Bacillus subtilis; 8.6 PPM, 0.1M NaOAc pH 4.6): 5.0 min
- Sterilization Time (Bacillus subtilis; 9.8 PPM, 0.1M NaH2PO4 pH 7.0): 15 min
- Sterilization Time (Bacillus subtilis; [1]): 2.5 min
- Sterilization Time (summary) (Bacillus subtilis; 10 PPM, 0.1M NaOAc pH 4.6): 2.5 min
- Sterilization Time (summary) (Bacillus subtilis; 100 PPM, 0.1M NaOAc pH 4.6): 2.5 min
- Sterilization Time (Bacillus subtilis; 106.2 PPM, 0.1M NaOAc pH 4.6): 2.5 min
- Sterilization Time (Bacillus subtilis; 149.7 PPM, 0.1M NaH2PO4 pH 7.0): 10.0 min
- Sterilization Time (summary) (Bacillus subtilis; [2]): 5.0 min
- Sterilization Time (summary) (Bacillus subtilis; [3]): 0.5 min
- Sterilization Time (Bacillus subtilis; [5]): 0.5 min
- Sterilization Time (Bacillus subtilis; 338.7 PPM, horse serum:pH 4.6 buffer 1:1): 5.0 min
- Sterilization Time (summary) (Bacillus subtilis; [4]): 0.5 min
- Sterilization Time (summary) (Bacillus subtilis; 1000 PPM, 0.1M NaOAc pH 4.6): 0.5 min
- Sterilization Time (Bacillus subtilis; 1008.0 PPM, 0.1M NaOAc pH 4.6): 0.5 min
- Sterilization Time (Bacillus subtilis; 1024.0 PPM, horse serum:pH 4.6 buffer 1:1): 0.5 min
- Sterilization Time (Bacillus subtilis; 1070.3 PPM, 0.1M NaH2PO4 pH 7.0): 2.5 min
- Sterilization Time (Rhizopus oryzae; 10 PPM): 15 min
- Sterilization Time (Rhizopus oryzae; 100 PPM): 15 min
- Sterilization Time (Rhizopus oryzae; 1000 PPM): 15 min

SMILES: CC(C)(CC(=O)O)N(Cl)Cl [(II)]
- Sterilization Time (Bacillus subtilis; 1.8 PPM, 0.1M NaOAc pH 4.6): 5.0 min
- Sterilization Time (Bacillus subtilis; 4.5 PPM, 0.1M NaOAc pH 4.6): 2.5 min
- Sterilization Time (Bacillus subtilis; [1]): 2.5 min
- Sterilization Time (summary) (Bacillus subtilis; 10 PPM, 0.1M NaOAc pH 4.6): 2.5 min
- Sterilization Time (Bacillus subtilis; 10.0 PPM, 0.1M NaOAc pH 4.6): 2.5 min
- Sterilization Time (Bacillus subtilis; 12.2 PPM, 0.1M NaOAc pH 4.6): 2.5 min
- Sterilization Time (Bacillus subtilis; 32.1 PPM, 0.1M NaOAc pH 4.6): 0.5 min
- Sterilization Time (Bacillus subtilis; 51.0 PPM, Triton X100 (10% solution):pH 4.6 buffer 1:1): 0.5 min
- Sterilization Time (Bacillus subtilis; 51.0 PPM, horse serum:pH 4.6 buffer 1:1): 15 min
- Sterilization Time (Bacillus subtilis; 71.7 PPM, 0.1M NaOAc pH 4.6): 0.5 min
- Sterilization Time (summary) (Bacillus subtilis; 100 PPM, 0.1M NaOAc pH 4.6): 0.5 min
- Sterilization Time (Bacillus subtilis; 104.7 PPM, 0.1M NaOAc pH 4.6): 0.5 min
- Sterilization Time (Bacillus subtilis; 107.8 PPM, 0.1M NaH2PO4 pH 7.0): 5.0 min
- Sterilization Time (Bacillus subtilis; 298.9 PPM, 0.1M NaOAc pH 4.6): 0.5 min
- Sterilization Time (summary) (Bacillus subtilis; [2]): 2.5 min
- Sterilization Time (summary) (Bacillus subtilis; [3]): 0.5 min
- Sterilization Time (Bacillus subtilis; 300 PPM, pH 4.6 buffer with 10% serum): 0.5 min
- Sterilization Time (Bacillus subtilis; 300 PPM, pH 4.6 buffer with 20% serum): 0.5 min
- Sterilization Time (Bacillus subtilis; 300 PPM, pH 4.6 buffer with 35% serum): 2.5 min
- Sterilization Time (Bacillus subtilis; 304.6 PPM, horse serum:pH 4.6 buffer 1:1): 2.5 min
- Sterilization Time (Bacillus subtilis; 304.8 PPM, Triton X100 (10% solution):pH 4.6 buffer 1:1): 0.5 min
- Sterilization Time (Bacillus subtilis; 316.6 PPM, 0.1M NaH2PO4 pH 7.0): 2.5 min
- Sterilization Time (Bacillus subtilis; 606.9 PPM, pH 4.6 buffer with 33% serum): 0.5 min
- Sterilization Time (Bacillus subtilis; 899.25 PPM, pH 4.6 buffer with 25% serum): 0.5 min
- Sterilization Time (summary) (Bacillus subtilis; [4]): 0.5 min
- Sterilization Time (summary) (Bacillus subtilis; 1000 PPM, 0.1M NaOAc pH 4.6): 0.5 min
- Sterilization Time (Bacillus subtilis; 1001.2 PPM, horse serum:pH 4.6 buffer 1:1): 0.5 min
- Sterilization Time (Bacillus subtilis; 1014.8 PPM, 0.1M NaOAc pH 4.6): 0.5 min
- Sterilization Time (Bacillus subtilis; 1016.0 PPM, 0.1M NaH2PO4 pH 7.0): 0.5 min
- Sterilization Time (Rhizopus oryzae; 10 PPM): 15 min
- Sterilization Time (Rhizopus oryzae; 100 PPM): 15 min
- Sterilization Time (Rhizopus oryzae; 1000 PPM): 10.0 min

SMILES: CC(C)(CCC(=O)O)N(Cl)Cl [(III), 4-Dichloroamino-4-methylvaleric acid]
- Sterilization Time (Bacillus subtilis; 9.6 PPM, 0.1M NaOAc pH 4.6): 2.5 min
- Sterilization Time (Bacillus subtilis; 9.7 PPM, 0.1M NaH2PO4 pH 7.0): 15 min
- Sterilization Time (Bacillus subtilis; [1]): 2.5 min
- Sterilization Time (summary) (Bacillus subtilis; 10 PPM, 0.1M NaOAc pH 4.6): 2.5 min
- Sterilization Time (summary) (Bacillus subtilis; 100 PPM, 0.1M NaOAc pH 4.6): 0.5 min
- Sterilization Time (Bacillus subtilis; 102.2 PPM, 0.1M NaOAc pH 4.6): 0.5 min
- Sterilization Time (Bacillus subtilis; 103.5 PPM, 0.1M NaH2PO4 pH 7.0): 10.0 min
- Sterilization Time (summary) (Bacillus subtilis; [2]): 2.5 min
- Sterilization Time (summary) (Bacillus subtilis; [3]): 0.5 min
- Sterilization Time (Bacillus subtilis; [5]): 0.5 min
- Sterilization Time (Bacillus subtilis; 308.0 PPM, horse serum:pH 4.6 buffer 1:1): 2.5 min
- Sterilization Time (summary) (Bacillus subtilis; [4]): 0.5 min
- Sterilization Time (summary) (Bacillus subtilis; 1000 PPM, 0.1M NaOAc pH 4.6): 0.5 min
- Sterilization Time (Bacillus subtilis; 1000.0 PPM, horse serum:pH 4.6 buffer 1:1): 0.5 min
- Sterilization Time (Bacillus subtilis; 1007.7 PPM, 0.1M NaOAc pH 4.6): 0.5 min
- Sterilization Time (Bacillus subtilis; 1012.3 PPM, 0.1M NaH2PO4 pH 7.0): 2.5 min
- Sterilization Time (Rhizopus oryzae; 10 PPM): 15 min
- Sterilization Time (Rhizopus oryzae; 100 PPM): 15 min
- Sterilization Time (Rhizopus oryzae; 1000 PPM): 10.0 min
